EP0797564B1, “LIGNANS, A PROCESS FOR THEIR PRODUCTION AND PHARMACEUTICAL COMPOSITIONS AND USES THEREOF” (KANOLDT ARZNEIMITTEL GMBH, priority 1995, dated 1997)

Columns and labels:
SHBG [1] = molecular target: T1, SHBG (Homo sapiens, UniProt P04278); assay: Concentration dependence: remaining SHBG activity to 5α-dihydrotestosterone (DHT) with varying concentrations of the compounds; type: binding; details: DHT concentration of 9.6 nM
T1 sequence (P04278 30-402): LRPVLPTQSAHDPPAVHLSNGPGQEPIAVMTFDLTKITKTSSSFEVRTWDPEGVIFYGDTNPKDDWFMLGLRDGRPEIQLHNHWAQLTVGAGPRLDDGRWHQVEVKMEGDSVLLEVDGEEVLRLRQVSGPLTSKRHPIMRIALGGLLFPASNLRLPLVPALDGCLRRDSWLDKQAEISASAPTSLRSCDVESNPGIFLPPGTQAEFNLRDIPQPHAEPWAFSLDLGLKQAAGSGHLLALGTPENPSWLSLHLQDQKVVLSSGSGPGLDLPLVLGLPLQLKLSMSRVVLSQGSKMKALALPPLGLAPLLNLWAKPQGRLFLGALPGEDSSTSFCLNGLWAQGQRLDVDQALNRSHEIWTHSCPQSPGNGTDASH
Description: In order to determine the strength of the interaction of the compounds produced according to the present invention, tests were carried out investigating remaining SHBG activity to 5α-dihydrotestosterone (DHT) with varying concentrations of the compounds, DHT being a natural hormone that binds with SHBG.

SHBG [2] = molecular target: T1, SHBG; assay: Estimation of equilibrium (association) constants Ka inhibitor/SHBG, assuming competitive binding; details: association constant inhibitor/SHBG; Table 3
Source text: With the assumption of competitive binding the estimation of equilibrium constants is possible. Two reactions exist in competition with one another: [drawing 50] [drawing 51]

Remaining SHBG Activity (SHBG [1]; @ 3.2*10^-4M compound) [% @ 3.2*10^-4M] | Ka (SHBG [2]) [M⁻¹] | Remaining SHBG Activity (SHBG [1]; @ 6*10^-4M compound) [% @ 6*10^-4M] | Compound | Remaining SHBG Activity (SHBG [1]; @ 6.2*10^-4M compound) [% @ 6.2*10^-4M]
 |  |  | COc1cc(CC2COC(C)(C)OCC2Cc2ccc(O)c(OC)c2)ccc1O (centres unmarked) [III'a] | 75
50 | 20000 |  | COc1cc(CC(CO)C(CO)Cc2ccc(O)c(OC)c2)ccc1O (centres unmarked) [IIIa] | 
 | 60000 | 30 | COC(=O)C(Cc1ccc(O)c(OC)c1)C(Cc1ccc(O)c(OC)c1)C(=O)OC (centres unmarked) [IIa] | 
